Measurements: patent US20250032525A1 (priority 2021, published 2025)
Where two headings read alike, the source gives them in different places.

Legend:
OVCAR-8 = details: OVCAR-8, NCI-60 database, sulforhodamine B; read-out: Cytotoxic IC50; cited from earlier work
MDA-MB-231 [1] = details: MDA-MB-231, NCI-60 database, sulforhodamine B; read-out: Cytotoxic IC50; cited from earlier work
HS 578T = details: NCI-60 database, sulforhodamine B, read-out: Cytotoxic IC50; cited from earlier work
MES-SA xenografts = assay: MES-SA xenograft tumors in mice; format: in vivo, NSG mice; details: MES-SA derived tumors; DOX 2 mg/kg iv. once per week
Method: (§1) 2×10^6 cells from each cell line in 200 μl serum-free culture media DMEM were inoculated into NOD.Cg-Prkdc^scid Il2rg^tm1Wjl/SzJ (NSG) mice subcutaneously in the left flank and treatment was initiated when tumors reached 200 mm^3. Mice were treated with saline (n=3 per each cell lines). […] The size of the tumors was measured every second day with a digital caliper.

COLO 205 = details: COLO 205, NCI-60 database, sulforhodamine B; read-out: Cytotoxic IC50; cited from earlier work
P388/ADR = assay: In vitro cytotoxicity; format: cell-based; details: Mus musculus
Text: (§2) Experiments were repeated at least 3 times.

A431-G2 = assay: In vitro cytotoxicity; format: cell-based
Text: as §2

MDA-MB-468 = assay: In vitro cytotoxicity; format: cell-based; details: Homo sapiens; MDA-MB-468 breast cancer cell line
Text: as §2

P388 = assay: In vitro cytotoxicity; format: cell-based; details: Mus musculus
Text: as §2

A431-B1 = assay: In vitro cytotoxicity; format: cell-based
Text: as §2

A431 = assay: In vitro cytotoxicity; format: cell-based; details: Homo sapiens, A-431
Text: as §2

[2] = tested on: patient-derived lung adenocarcinoma xenografts; assay: Patient-derived xenograft (PDX) model; format: in vivo, NSG mice; details: single treatment; LiPyDau 0.5 mg/kg, DOX 2 mg/kg, paclitaxel 12 mg/kg; 7 days
Text: A piece from the tumor tissue was transplanted subcutaneously into the right flank and propagated in NOD.Cg-Prkdc^scid Il2rg^tm1Wjl/SzJ (NSG) mice for 7 months. After the xenografted tumor reached 1000 mm^3, tumor pieces were retransplanted subcutaneously into the right flank of 20 additional NSG mice, which were given a single treatment with various chemotherapeutics or LiPyDau. Every treatment group consists of 5 animals. After daily monitoring of the tumor volume for one week, the mice were sacrificed and the cytotoxicity of the treatments was investigated on tissue slices by image analysis.
For treatment, tumor pieces were engrafted subcutaneously.

NCI-60 cell lines = assay: NCI DTP NCI-60 cell line screen database (sulforhodamine B), panel; format: cell-based; details: Homo sapiens
MDA-MB-435 = details: MDA-MB-435, NCI-60 database, sulforhodamine B; read-out: Cytotoxic IC50; cited from earlier work
NCI-H226 = details: NCI-H226, NCI-60 database, sulforhodamine B; read-out: Cytotoxic IC50; cited from earlier work
EKVX = details: NCI-60 database, sulforhodamine B, read-out: Cytotoxic IC50; cited from earlier work
MES-SA/Dx5 xenografts = assay: MES-SA/Dx5 xenograft tumors in mice; format: in vivo, NSG mice; details: multidrug resistant MES-SA/Dx5 tumors; DOX 2 mg/kg iv., LiPyDau 0.5 mg/kg iv. once per week
Method: as §1

DU-145 = details: DU-145, NCI-60 database, sulforhodamine B; read-out: Cytotoxic IC50; cited from earlier work
OVCAR-3 = details: OVCAR-3, NCI-60 database, sulforhodamine B; read-out: Cytotoxic IC50; cited from earlier work
BT-549 = details: BT-549, NCI-60 database, sulforhodamine B; read-out: Cytotoxic IC50; cited from earlier work
UO-31 = details: UO-31, NCI-60 database, sulforhodamine B; read-out: Cytotoxic IC50; cited from earlier work
A498 = details: A498, NCI-60 database, sulforhodamine B; read-out: Cytotoxic IC50; cited from earlier work
PC-3 = details: PC-3, NCI-60 database, sulforhodamine B; read-out: Cytotoxic IC50; cited from earlier work
Brcal^−/−;p53^−/− tumors = details: cited from earlier work
[3] = tested on: panel of cell lines of various tissue of origin; assay: In vitro cytotoxicity, panel of cell lines (PrestoBlue); format: cell-based, human; details: for IC50: Homo sapiens
Text: as §2

[4] = tested on: MCF-7 human breast adenocarcinoma cells; details: reported by Mező; cited from earlier work
MCF7 = assay: In vitro cytotoxicity (PrestoBlue); details: Homo sapiens, MCF7, 72 h, read-out: Cytotoxic IC50
Method: (§3) Cells were seeded in 40 μl medium on 384 well plates by an automatic liquid handling machine (Hamilton StarLet) in a density of 2500 cells/well. Adherent cells were cultured for 24 h before the addition of the compounds, while drugs were added to non-adherent cells 2 h after cell seeding. The drugs were serially diluted, and dispensed in an additional 20 μl. Cells were incubated for an additional 72 h, cytotoxicity was assessed by the PrestoBlue viability reagent (Thermo Fisher). Experiments were repeated at least 3 times.

MDA-MB-231 [5] = assay: In vitro cytotoxicity (PrestoBlue); details: Homo sapiens, MDA-MB-231, 72 h, read-out: Cytotoxic IC50
Method: as §3

[6] = tested on: HT-29 human colon adenocarcinoma cells; details: reported by Mező; cited from earlier work

Structure (SMILES): COc1cccc2c1C(=O)c1c(O)c3c(c(O)c1C2=O)C[C@@](O)(C(=O)CO)C[C@@H]3O[C@H]1C[C@H](N)[C@H](O)[C@H](C)O1 [DOX, doxorubicin]
- IC50 (OVCAR-8): 0.13 µM
- IC50 (MDA-MB-231 [1]): 0.383 µM
- IC50 (HS 578T): 0.188 µM
- Overall survival (MES-SA xenografts): increased the overall survival
- IC50 (COLO 205): 0.158 µM
- IC50 (P388/ADR; read-out: IC50): 2.04 µM
- IC50 (P388/ADR; read-out: IC50 + TQ, heading: IC50 + TQ, presence of 1 μM tariquidar): 0.69 µM
- IC50 (A431-G2): 0.17 µM
- IC50 (MDA-MB-468): 0.02 µM
- IC50 (P388): 0.15 µM
- IC50 (A431-B1): 2.45 µM
- IC50 (A431): 0.065 µM
- Tumor growth [2]: failed to exert any effect on tumor growth
- IC50 (NCI-60 cell lines; read-out: Cytotoxic IC50, av. breast): 0.19 µM
- IC50 (NCI-60 cell lines; read-out: Cytotoxic IC50, av. colorectal): 0.296 µM
- IC50 (NCI-60 cell lines; read-out: Cytotoxic IC50, av. leukaemia): 0.0498 µM
- IC50 (NCI-60 cell lines; read-out: Cytotoxic IC50, av. lung): 0.221 µM
- IC50 (NCI-60 cell lines; read-out: Cytotoxic IC50, av. melanoma): 0.177 µM
- IC50 (NCI-60 cell lines; read-out: Cytotoxic IC50, av. ovarian): 3.65 µM
- IC50 (NCI-60 cell lines; read-out: Cytotoxic IC50, av. prostatic): 0.173 µM
- IC50 (NCI-60 cell lines; read-out: Cytotoxic IC50, av. renal): 0.247 µM
- IC50 (MDA-MB-435): 0.258 µM
- IC50 (NCI-H226): 0.0524 µM
- IC50 (EKVX): 0.484 µM
- Response / overall survival (MES-SA/Dx5 xenografts): largely ineffective
- IC50 (DU-145): 0.1 µM
- IC50 (OVCAR-3): 0.335 µM
- IC50 (BT-549): 0.212 µM
- IC50 (UO-31): 0.553 µM
- IC50 (A498): 0.0855 µM
- IC50 (PC-3): 0.246 µM
- Outcome of treatment at MTD (Brcal^−/−;p53^−/− tumors; DOX 5 mg/kg, PLD 8 mg/kg, FIG. 10 from Füredi et al.): all tumors developed resistance
- Maximum tolerable dose (MTD) (Brcal^−/−;p53^−/− tumors; iv., FVB mice with Brcal^−/−;p53^−/− tumors): 5 mg/kg

Structure (SMILES): COc1cccc2c1C(=O)c1c(O)c3c(c(O)c1C2=O)C[C@@](O)(C(C)=O)C[C@@H]3O[C@H]1C[C@H]2[C@H](OC3CCCN32)[C@H](C)O1 (stereo partly shown) [PyDau, 2-deamino-2-pyrrolino-daunorubicin]
- IC50 ([3]; average IC50 within the breast group, read-out: Cytotoxic IC50, av. breast): 0.00323 µM
- IC50 ([3]; average IC50 within the colorectal group, read-out: Cytotoxic IC50, av. colorectal): 0.00339 µM
- IC50 ([3]; average IC50 within the leukaemia group, read-out: Cytotoxic IC50, av. leukaemia): 0.00057 µM
- IC50 ([3]; average IC50 within the lung group, read-out: Cytotoxic IC50, av. lung): 0.00421 µM
- IC50 ([3]; average IC50 within the melanoma group, read-out: Cytotoxic IC50, av. melanoma): 0.00408 µM
- IC50 ([3]; average IC50 within the ovarian group, read-out: Cytotoxic IC50, av. ovarian): 0.00143 µM
- IC50 ([3]; average IC50 within the pancreatic group, read-out: Cytotoxic IC50, av. pancreatic): 0.00323 µM
- IC50 ([3]; average IC50 within the prostate group, read-out: Cytotoxic IC50, av. prostatic): 0.00193 µM
- IC50 ([3]; average IC50 within the renal group, read-out: Cytotoxic IC50, av. renal): 0.0052 µM
- IC50 ([3]; panel of cell lines, FIG. 1, read-out: IC50 values ranging across every cell line of the panel): 0.00023 to 0.0143 µM
- IC50 ([3]; panel of cell lines, typical range, read-out: IC50 values, typically): 0.001 to 0.01 µM
- Effectiveness against multidrug resistant cells ([3]; Pgp expressing multidrug resistant HCT-15 and NCI/ADR-RES cells): effective
- IC50 [4]: 0.0002 µM
- IC50 (MCF7): 0.00573 µM
- IC50 (MDA-MB-231 [5]): 0.00109 µM
- IC50 [6]: 0.0002 µM
